One assay concerns the target STK3 (MST2) (Homo sapiens (Human), UniProt Q13188). As to the kind of experiment: Z-lyte biochemical IC50 assay (Invitrogen). The following applies: ATP concentration matched the Km.
The test system of the next assay is YAP1. As to the kind of experiment: Western blotting. The following applies: for YAP1 levels: H929 and MM.1S cells. In kind it is cell-based. From the text:
(§1) MM.1S, KMS20 and H929 cells are counted, diluted and plated. Cells are then […] with DMSO or different concentration of a compound of the present application for 6 hrs, 24 hrs or 48 hrs. MM cells are then collected and centrifuged at RT and the pellets are re-suspended in lysis buffer. Cell lysates are subjected to sodium dodecyl sulfate-polyacrylamide gel electrophoresis SDS-PAGE, transferred to nitrocellulose membranes, and immunoblotted with different antibodies.
(§2) MM.1S, KMS20 and H929 cells were counted, diluted and plated in six-well plates to a final concentration of 500,000 cells/well. Cells were then […] with DMSO or different concentration of a compound of the present application for 6 hrs, 24 hrs or 48 hrs. MM cells were then collected and centrifuged for 5 min, 1300 rpm at RT. The pellets were re-suspended in lysis buffer Laemli 1× (Laemli 5×: SDS 10%, DTT 500 mM, Tris-HCl pH6.8 0.4M, BromoFenol Blue, Glycerol 50%). Cell lysates were subjected to sodium dodecyl sulfate-polyacrylamide gel electrophoresis SDS-PAGE, transferred to nitrocellulose membranes, and immunoblotted with different antibodies: YAP1 (#4912), p-YAP1 (S127) (#13008), LATS1 (#9153), p-LATS1 (Thr1079) (#8654), MOB1 (#3863), p-MOB1 (Thr12) (#8843), p-MST1/p-MST2 (Thr183/Thr180) (#3681), p21 (#2947), PARP (#9532), ERK, STAT, and GAPDH (#5174) from Cell Signaling, Beverly, Mass., United States; STK4 (ab57836) (from Abcam, Cambridge, Mass., United States); PUMA (sc-28226), BAX (sc-20067), from Santa Cruz, Dallas, Tex., United States; β-actin from Sigma-Aldrich (St. Louis, Mo., United States). All antibodies were diluted 1:500, except for β-actin antibody (1:50,000 dilution). In FIG. 8, H929 cells were treated with Compound I-9 or DMSO at 1 μM concentration for 24 hours. Lysates were then obtained and immunoblot was performed using antibodies against PARP, YAP1, PUMA, BAX. p21, and GAPDH.
In FIG. 10A, H929 and MM.1S cells were treated with Compound I-1 or DMSO at 1 μM and 10 μM concentrations for 16 hours. Lysates were then obtained and immunoblot was performed using antibodies against YAP1 and GAPDH.
In FIG. 12, H929 and MM. 1S cells were treated with Compound I-9, Compound I-12, or DMSO at 3 μM and 10 μM concentrations for 72 hours. Lysates were then obtained and immunoblot was performed using antibodies against YAP1 and Actin as loading control.
FIG. 13 show a Western blot of H929 and MM.1S cells treated with Compound I-13, Compound I-28, Compound I-9, KIN001-305, BMS536924, or DMSO at 1 μM concentration for 16 hours. Lysates were then obtained and immunoblot was performed using antibodies against YAP1, Actin, and pMOB1.
For orientation: A western blot detects proteins with antibodies after separation by electrophoresis.

Another assay relates to p-MOB1. The experiment in a line: Western blotting. Type of assay: cell-based. The conditions noted are these: MM.1S cells, 1 μM and 10 μM, 6 hours.
Excerpt: as §1, §2
In FIGS. 26A-26J, MM.1S cells were treated with Compound I-6, Compound I-31, Compound I-30, Compound I-22, Compound I-27, Compound I-1, Compound I-23, Compound I-13, Compound I-28, Compound I-9, or DMSO at 1 μM and 10 μM concentrations for 6 hours. Lysates were then obtained and immunoblot was performed using antibodies against MOB1 and p-MOB1. As shown from FIGS. 26A-26J, Compound I-22, Compound I-27, Compound I-1, Compound I-23, Compound I-13, Compound I-28, and Compound I-9 reduced PMOB1 levels at different concentrations.

The target of another assay is SGK2 (Homo sapiens (Human), UniProt Q9HBY8). As to the kind of experiment: KiNativ assay. Type of assay: binding. The conditions noted are these: H929 live cell. In short, it runs like this: (§3)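 Compounds were tested in duplicate at 10 μM in live H929 cells, and kinase engagement was profiled by KiNativ with mass spectrometry read-out to derive IC50.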
Sequence of SGK2 (Q9HBY8 whole entry): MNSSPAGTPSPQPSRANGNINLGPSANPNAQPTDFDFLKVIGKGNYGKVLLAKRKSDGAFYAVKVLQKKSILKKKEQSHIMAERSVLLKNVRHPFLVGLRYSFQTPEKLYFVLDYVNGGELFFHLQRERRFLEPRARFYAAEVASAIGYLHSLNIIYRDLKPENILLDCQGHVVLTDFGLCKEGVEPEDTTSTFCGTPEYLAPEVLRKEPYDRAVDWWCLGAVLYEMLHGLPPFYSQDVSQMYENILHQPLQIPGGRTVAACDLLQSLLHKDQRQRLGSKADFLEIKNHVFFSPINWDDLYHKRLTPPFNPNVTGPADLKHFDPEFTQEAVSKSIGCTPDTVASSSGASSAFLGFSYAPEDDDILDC
The subject of another assay is ROCK1, ROCK2. The experiment in a line: KiNativ assay. In kind it is binding. The following applies: H929 live cell; for % inhibition (range): 10 μM. An outline of the steps:
as §3

A further assay concerns the target RIPK3 (Homo sapiens (Human), UniProt Q9Y572). The experiment in a line: KiNativ assay. In kind it is binding. The following applies: H929 live cell. In short, it runs like this: as §3
The target in the next assay is MAP3K6 (Homo sapiens (Human), UniProt O95382). The experiment in a line: KiNativ assay. In kind it is binding. The conditions noted are these: H929 live cell. An outline of the steps: (§4)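 Screening used intact H929 cells treated with each compound at 10 μM in duplicate; KiNativ labelling followed, and MS quantitation yielded IC50.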
Sequence of MAP3K6 (O95382 whole entry): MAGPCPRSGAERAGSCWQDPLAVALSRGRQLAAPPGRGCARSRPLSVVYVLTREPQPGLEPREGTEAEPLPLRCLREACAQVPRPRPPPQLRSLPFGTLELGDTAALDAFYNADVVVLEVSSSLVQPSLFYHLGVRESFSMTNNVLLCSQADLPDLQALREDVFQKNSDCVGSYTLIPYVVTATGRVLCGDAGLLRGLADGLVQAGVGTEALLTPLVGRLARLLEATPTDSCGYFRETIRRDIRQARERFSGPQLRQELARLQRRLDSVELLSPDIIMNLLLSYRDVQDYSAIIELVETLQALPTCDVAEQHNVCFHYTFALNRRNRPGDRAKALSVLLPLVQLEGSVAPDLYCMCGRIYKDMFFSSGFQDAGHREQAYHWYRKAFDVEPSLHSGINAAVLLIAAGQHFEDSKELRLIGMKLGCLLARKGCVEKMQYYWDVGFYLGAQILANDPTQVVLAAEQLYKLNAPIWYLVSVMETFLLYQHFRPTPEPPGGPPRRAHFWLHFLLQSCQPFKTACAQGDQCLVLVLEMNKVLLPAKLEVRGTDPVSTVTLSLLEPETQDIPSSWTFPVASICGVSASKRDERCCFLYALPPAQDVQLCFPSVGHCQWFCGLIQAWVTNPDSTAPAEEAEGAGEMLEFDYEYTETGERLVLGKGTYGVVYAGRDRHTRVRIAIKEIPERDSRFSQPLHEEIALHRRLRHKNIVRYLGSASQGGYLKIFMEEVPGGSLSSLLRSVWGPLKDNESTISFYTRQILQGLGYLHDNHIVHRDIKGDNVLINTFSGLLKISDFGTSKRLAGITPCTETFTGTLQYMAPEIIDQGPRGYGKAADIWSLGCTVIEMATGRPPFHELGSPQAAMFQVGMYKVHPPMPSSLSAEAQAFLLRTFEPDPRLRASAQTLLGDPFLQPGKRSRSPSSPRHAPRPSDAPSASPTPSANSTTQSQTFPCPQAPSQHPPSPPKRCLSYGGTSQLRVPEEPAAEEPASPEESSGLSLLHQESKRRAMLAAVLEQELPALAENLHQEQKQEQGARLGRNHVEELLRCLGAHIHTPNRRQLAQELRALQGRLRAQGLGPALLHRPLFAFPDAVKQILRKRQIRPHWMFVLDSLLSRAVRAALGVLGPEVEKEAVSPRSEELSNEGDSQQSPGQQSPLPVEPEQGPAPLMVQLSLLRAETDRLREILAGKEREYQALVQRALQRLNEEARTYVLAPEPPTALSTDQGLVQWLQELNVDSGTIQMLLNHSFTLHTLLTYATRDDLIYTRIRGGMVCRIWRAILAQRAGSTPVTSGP
The target of another assay is ULK3 (Homo sapiens (Human), UniProt Q6PHR2). As to the kind of experiment: KiNativ assay. Type of assay: binding. The following applies: H929 live cell. In short, it runs like this: as §4
Sequence of ULK3 (Q6PHR2 whole entry): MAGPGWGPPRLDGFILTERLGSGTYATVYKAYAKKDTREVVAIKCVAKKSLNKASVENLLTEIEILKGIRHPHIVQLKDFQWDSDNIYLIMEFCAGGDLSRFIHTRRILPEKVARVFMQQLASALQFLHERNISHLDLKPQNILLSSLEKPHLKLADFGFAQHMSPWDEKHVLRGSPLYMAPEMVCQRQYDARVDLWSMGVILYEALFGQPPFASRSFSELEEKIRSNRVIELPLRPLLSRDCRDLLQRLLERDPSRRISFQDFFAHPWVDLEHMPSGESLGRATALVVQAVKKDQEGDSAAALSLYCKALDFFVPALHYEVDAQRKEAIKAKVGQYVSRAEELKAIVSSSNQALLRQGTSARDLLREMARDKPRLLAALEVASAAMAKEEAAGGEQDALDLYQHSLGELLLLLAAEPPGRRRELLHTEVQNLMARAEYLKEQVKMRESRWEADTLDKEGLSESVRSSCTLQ
In a further assay the target is AGK (Homo sapiens (Human), UniProt Q53H12). The experiment in a line: KiNativ assay. Type of assay: binding. The following applies: H929 live cell. In short, it runs like this: as §3
Sequence of AGK (Q53H12 whole entry): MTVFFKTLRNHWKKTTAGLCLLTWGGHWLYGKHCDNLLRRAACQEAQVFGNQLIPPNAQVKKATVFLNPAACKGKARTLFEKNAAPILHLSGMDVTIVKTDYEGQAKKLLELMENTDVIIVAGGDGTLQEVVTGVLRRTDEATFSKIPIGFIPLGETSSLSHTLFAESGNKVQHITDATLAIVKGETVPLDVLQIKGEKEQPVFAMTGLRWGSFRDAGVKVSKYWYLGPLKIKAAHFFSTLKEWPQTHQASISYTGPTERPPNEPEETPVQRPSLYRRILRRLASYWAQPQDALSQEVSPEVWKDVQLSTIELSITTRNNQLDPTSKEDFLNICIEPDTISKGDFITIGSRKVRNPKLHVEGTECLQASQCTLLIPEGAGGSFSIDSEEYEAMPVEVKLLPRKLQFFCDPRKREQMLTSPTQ
The target of another assay is CLK3 (Homo sapiens (Human), UniProt P49761). The experiment in a line: KiNativ assay. Type of assay: binding. The following applies: H929 live cell. In short, it runs like this: as §4
In a further assay the target is MLK4 (Homo sapiens (Human), UniProt Q5TCX8). The experiment in a line: KiNativ assay. In kind it is binding. The conditions noted are these: H929 live cell. An outline of the steps: as §4
Sequence of MLK4 (Q5TCX8 whole entry): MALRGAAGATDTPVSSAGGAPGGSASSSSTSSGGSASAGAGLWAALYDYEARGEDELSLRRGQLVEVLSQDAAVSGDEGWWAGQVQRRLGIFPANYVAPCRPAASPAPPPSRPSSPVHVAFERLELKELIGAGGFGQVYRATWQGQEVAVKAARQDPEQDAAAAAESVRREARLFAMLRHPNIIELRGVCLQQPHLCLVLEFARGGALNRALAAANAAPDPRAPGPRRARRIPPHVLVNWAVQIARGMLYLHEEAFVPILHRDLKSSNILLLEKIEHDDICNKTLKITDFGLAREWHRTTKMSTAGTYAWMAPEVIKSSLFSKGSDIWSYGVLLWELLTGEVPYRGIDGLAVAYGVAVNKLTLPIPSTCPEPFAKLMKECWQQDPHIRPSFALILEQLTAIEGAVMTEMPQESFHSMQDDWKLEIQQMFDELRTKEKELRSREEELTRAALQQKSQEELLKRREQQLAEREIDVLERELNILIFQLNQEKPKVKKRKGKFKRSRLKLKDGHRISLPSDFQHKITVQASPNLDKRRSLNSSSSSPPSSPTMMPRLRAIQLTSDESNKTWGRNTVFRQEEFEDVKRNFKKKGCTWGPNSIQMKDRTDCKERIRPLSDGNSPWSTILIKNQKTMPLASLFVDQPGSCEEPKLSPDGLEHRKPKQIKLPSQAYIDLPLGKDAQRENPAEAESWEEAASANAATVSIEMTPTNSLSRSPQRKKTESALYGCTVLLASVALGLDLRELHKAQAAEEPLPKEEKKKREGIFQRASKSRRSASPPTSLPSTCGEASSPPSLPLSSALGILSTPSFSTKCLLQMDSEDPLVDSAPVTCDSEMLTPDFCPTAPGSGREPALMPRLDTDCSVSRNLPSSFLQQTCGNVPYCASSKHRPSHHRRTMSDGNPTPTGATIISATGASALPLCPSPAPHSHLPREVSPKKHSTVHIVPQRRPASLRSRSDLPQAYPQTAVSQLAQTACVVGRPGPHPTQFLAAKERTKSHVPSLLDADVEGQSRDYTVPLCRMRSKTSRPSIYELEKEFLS
The mark [1] stands for this setting: range class, read-out: % inhibition.

The structures appear in SMILES notation. Like-named read-outs stand apart in the source and are kept apart here. A value given as a limit tells only on which side of the number the result lay.

Sequence of STK3 (MST2) (Q13188 whole entry): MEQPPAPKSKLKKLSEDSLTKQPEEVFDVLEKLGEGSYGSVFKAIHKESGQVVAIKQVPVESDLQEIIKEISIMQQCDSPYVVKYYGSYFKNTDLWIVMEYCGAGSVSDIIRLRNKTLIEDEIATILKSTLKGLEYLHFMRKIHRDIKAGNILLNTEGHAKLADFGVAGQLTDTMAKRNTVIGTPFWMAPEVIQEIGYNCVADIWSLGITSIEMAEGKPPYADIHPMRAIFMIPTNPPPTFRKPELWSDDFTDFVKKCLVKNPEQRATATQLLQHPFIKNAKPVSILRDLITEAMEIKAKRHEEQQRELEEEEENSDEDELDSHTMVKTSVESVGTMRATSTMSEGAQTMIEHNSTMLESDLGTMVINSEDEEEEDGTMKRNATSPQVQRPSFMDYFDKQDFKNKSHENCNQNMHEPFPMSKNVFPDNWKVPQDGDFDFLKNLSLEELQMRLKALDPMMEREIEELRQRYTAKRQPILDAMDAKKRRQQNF
Sequence of RIPK3 (Q9Y572 whole entry): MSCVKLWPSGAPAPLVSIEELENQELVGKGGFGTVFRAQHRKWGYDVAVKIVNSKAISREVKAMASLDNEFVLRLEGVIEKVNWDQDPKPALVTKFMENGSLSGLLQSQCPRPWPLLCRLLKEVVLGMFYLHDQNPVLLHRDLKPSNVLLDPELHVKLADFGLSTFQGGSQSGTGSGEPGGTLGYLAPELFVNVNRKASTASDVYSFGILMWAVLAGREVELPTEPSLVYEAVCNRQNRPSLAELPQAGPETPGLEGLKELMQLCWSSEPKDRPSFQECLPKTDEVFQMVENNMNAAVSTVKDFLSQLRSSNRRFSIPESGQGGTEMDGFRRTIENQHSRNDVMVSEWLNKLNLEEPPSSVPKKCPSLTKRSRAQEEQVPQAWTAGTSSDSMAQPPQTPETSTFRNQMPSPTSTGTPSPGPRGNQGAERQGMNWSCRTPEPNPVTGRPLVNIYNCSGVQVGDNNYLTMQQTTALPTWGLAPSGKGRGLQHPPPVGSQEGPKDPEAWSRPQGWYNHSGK

Take `Nc1ncc(-c2cc([N+](=O)[O-])ccc2F)cc1-c1ccc2c(c1)CCNC2=O` [Compound I-1, 6-(2-amino-5-(2-fluoro-5-nitrophenyl)pyridin-3-yl)-3,4-dihydroisoquinolin-1(2H)-one]: on STK3 (MST2), the IC50 was 40 to 200 nM. Moreover, the “protein levels of YAP1” value in the assay on YAP1 (H929 cells and MM.1S cells, 1 μM and 10 μM, 16 hours) was “upregulation”. In the assay with p-MOB1, the PMOB1 levels entry is given as “reduced”.

`Nc1ncc(-c2cccc([N+](=O)[O-])c2F)cc1-c1ccc2c(c1)CCNC2=O` [Compound I-9, 6-(2-amino-5-(2-fluoro-3-nitrophenyl)pyridin-3-yl)-3,4-dihydroisoquinolin-1(2H)-one]: the inhibition at 10 µM was 0% on SGK2 (read-out: % inhibition (range)), -5.4% on SGK2 (read-out: inhibition (10 μM)), 0% on RIPK3 (read-out: % inhibition (range)) and -33.4% at RIPK3 (read-out: inhibition (10 μM)). For the same molecule, the “% inhibition (range)” value in the assay on ROCK1, ROCK2 is on record as 0.0%. For the same molecule, the “inhibition (10 μM)” value with ROCK1, ROCK2 is recorded as −55.8%. On STK3 (MST2), this molecule came in with a half-inhibitory concentration (IC50) below 40 nM. Further, the YAP1 levels entry in the assay on YAP1 (1 μM, 16 hours) is listed as “increase”; in the assay on YAP1 (3 μM and 10 μM, 72 hours) it was “low”. Further, the “protein levels of YAP1” value in the assay on YAP1 (H929 cells, 1 μM, 24 hours) is listed as “upregulation”. Also, the PMOB1 levels entry with p-MOB1 is “reduced”.

Turning to `Nc1ncc(-c2cccc3ncsc23)cc1-c1ccc2c(c1)CCNC2=O` [Compound I-13, 6-(2-amino-5-(benzo[d]thiazol-7-yl)pyridin-3-yl)-3,4-dihydroisoquinolin-1(2H)-one], the inhibition at 10 µM is 0% on SGK2 (read-out: % inhibition (range)), 22.1% on SGK2 (read-out: inhibition (10 μM)), 0% on RIPK3 (read-out: % inhibition (range)) and -25.9% at RIPK3 (read-out: inhibition (10 μM)). Further, the “% inhibition (range)” value with ROCK1, ROCK2 worked out at 0.0%. Further, the “inhibition (10 μM)” value in the assay on ROCK1, ROCK2 is on record as −11.4%. The same molecule had a half-inhibitory concentration (IC50) against STK3 (MST2) of 40 to 200 nM. Also, in the assay with YAP1 (1 μM, 16 hours), the YAP1 levels entry is “increase”. Besides, the PMOB1 levels entry in the assay on p-MOB1 is given as “reduced”.

With `CN(C1CC1)S(=O)(=O)c1ccc(-c2cnc(N)c(-c3ccc4c(c3)CCNC4=O)c2)c(F)c1` [Compound I-28, 4-(6-amino-5-(1-oxo-1,2,3,4-tetrahydroisoquinolin-6-yl)pyridin-3-yl)-N-cyclopropyl-3-fluoro-N-methylbenzenesulfonamide], the inhibition at 10 µM is 0% at SGK2 (read-out: % inhibition (range)), -30.3% at SGK2 (read-out: inhibition (10 μM)) and -121% at RIPK3 (read-out: inhibition (10 μM)). In addition, in the assay with ROCK1, ROCK2, the “% inhibition (range)” value is 0.0%. Also, the “inhibition (10 μM)” value with ROCK1, ROCK2 worked out at 20.8%. The IC50 at STK3 (MST2) is below 40 nM. For the same molecule, in the assay with YAP1 (1 μM, 16 hours), the YAP1 levels entry was “increase”. The PMOB1 levels result with p-MOB1 is reported as “reduced”.

On to `COc1cc(NS(=O)(=O)C2CC2)ccc1-c1cnc(N)c(-c2ccc3c(c2)CCNC3=O)c1` [Compound I-50, N-(4-(6-amino-5-(1-oxo-1,2,3,4-tetrahydroisoquinolin-6-yl)pyridin-3-yl)-3-methoxyphenyl) cyclopropanesulfonamide], for which the inhibition at 10 µM was 0% on MAP3K6 (setting [1]); -5.4% on MAP3K6 (read-out: inhibition (10 μM)); 0% at ULK3 (setting [1]); -14.2% on ULK3 (read-out: inhibition (10 μM)); 0% at AGK (setting [1]); 11.5% at AGK (read-out: inhibition (10 μM)). Also, the inhibition at 10 µM on CLK3 (setting [1]) is 0%; on CLK3 (read-out: inhibition (10 μM)) it was 1.5%; at MLK4 (setting [1]), 0%; on MLK4 (read-out: inhibition (10 μM)), 30.2%.

With `Nc1ncc(-c2ccc(NS(=O)(=O)C3CC3)cc2F)cc1-c1ccc2c(c1)CCNC2=O` [Compound I-51, N-(4-(6-amino-5-(1-oxo-1,2,3,4-tetrahydroisoquinolin-6-yl)pyridin-3-yl)-3-fluorophenyl) cyclopropanesulfonamide], the inhibition at 10 µM is 0% on MAP3K6 (setting [1]); 24.4% at MAP3K6 (read-out: inhibition (10 μM)); 0% at ULK3 (setting [1]); 1.8% at ULK3 (read-out: inhibition (10 μM)); 0% at AGK (setting [1]); -12.1% at AGK (read-out: inhibition (10 μM)). Further, the inhibition at 10 µM on CLK3 (setting [1]) worked out at 0%; at CLK3 (read-out: inhibition (10 μM)) it was 23.3%; on MLK4 (setting [1]), 0%; at MLK4 (read-out: inhibition (10 μM)) it was 14.2%.

Turning to `Nc1ncc(-c2ccc(NS(=O)(=O)C3CC3)cc2OC2CCCCC2)cc1-c1ccc2c(c1)CCNC2=O` [Compound I-65, N-(4-(6-amino-5-(1-oxo-1,2,3,4-tetrahydroisoquinolin-6-yl)pyridin-3-yl)-3-(cyclohexyloxy)phenyl) cyclopropanesulfonamide], the inhibition at 10 µM on MAP3K6 (setting [1]) was 0%; on MAP3K6 (read-out: inhibition (10 μM)) it was -7.2%; at ULK3 (setting [1]), 0%; on ULK3 (read-out: inhibition (10 μM)) it was 30.6%; on AGK (setting [1]), 0%; on AGK (read-out: inhibition (10 μM)) it was -21.2%. Moreover, the inhibition at 10 µM at CLK3 (setting [1]) was 35 to 40%; at CLK3 (read-out: inhibition (10 μM)), 40%; at MLK4 (setting [1]), 50 to 75%; at MLK4 (read-out: inhibition (10 μM)) it was 56.9%.

For orientation: IC50 means the point on the concentration scale where inhibition reaches its midpoint. As usually defined, the inhibition is the change of the read-out against control, counted positive when it falls.

These data come from patent US10710978B2, “STK4 inhibitors for treatment of hematologic malignancies” (Dana-Farber Cancer Institute, Inc., priority 2015, dated 2020).
